# “Also recorded” adds a separate entry of the source.
# What was measured:
# normal adult rats = assay: rt-PA-induced hemorrhagic transformation model (intracortical rt-PA) in normal adult rats: Evans blue extravasation and infarct volume; assay type: in vivo, rat; conditions: intracortical 0.66 mg/kg rt-PA
# Procedure: Male Sprague-Dawley rats (340-380 g) were anesthetized with chloral hydrate (400 mg/kg, IP). The animals received intracortical injection of rt-PA (0.66 mg/kg; total […]) coordinated with 2.6 mm posterior, 5.4 mm lateral, and 3.8 mm from bregma at a flow rate of 0.5 μL/min using a infusion pump and Hamilton syringe. After the end of infusion, the syringe was removed from the cortex and nelonemdazK (30 mg/kg) was administrated through femoral vein for 5 min (3 mg/mL; 10 mL/kg). Six hours later, the rats were anesthetized and intravenously administrated with 4% Evans blue solution. Twenty minutes later, the rats were perfused transcardially first with saline and next with 4% paraformaldehyde. The brain was removed immediately and placed in the fixative for 15 min and scanned for evaluation of extravasation area of Evans blue to indirectly measure rt-PA-induced hemorrhagic transformation which occurs as a result of the breakdown of the blood-brain barrier (Jiang et al., 2018). To evaluate brain damage volume, the brain tissues were stored in 4% paraformaldehyde for 3 days and then processed overnight for paraffin embedding and cresyl violet staining. The extravasation area was measured by TINA imaging system (KAIST, Korea).
# Animals received the intracortical injection of 0.66 mg/kg rt-PA that was followed by subsequent IV administration of vehicle or 30 mg/kg nelonemdazK 5 min later. Hemorrhagic transformation was investigated by analyzing extravasation of Evans blue dye at 6 h after rt-PA. (Upper panel) Compared to the sham control group, administration of rt-PA produced hemorrhagic transformation evident by extravasation of Evans blue, which was prevented by subsequent treatment with nelonemdazK.
# Animals received sham operation or the intracortical injection of 0.66 mg/kg rt-PA, alone or with the subsequent intravenous administration of vehicle or 30 mg/kg nelonemdazK. Animals were sacrificed 6 h later and infarct volume was analyzed after staining brain sections with cresyl violet. (Upper panel) Photographs of brain sections stained with cresyl violet. Note brain lesion following the intracortical injections of rt-PA that was prevented by the administration of nelonemdazK. (Lower panel) Quantitation of infarct volume (Mean±S.E.M., n=3 for sham and 6 for rt-PA-treated groups) by summation of lesion areas in brain sections.
# [1] = system: acute ischemic stroke patients; assay: SONIC phase II trial: acute ischemic stroke patients receiving endovascular thrombectomy with or without rt-PA; assay type: in vivo, human; conditions: for ratio of mRS 0-2 or 0: vs placebo, potassium salt
# Procedure: The SONIC trial was to examine efficacy and safety of the intravenous infusions of nelonemdazK for acute ischemic stroke patients (adults≥19) receiving endovascular thrombectomy with or without rt-PA within 8 hours of onset as described (Hong et al., 2018). A total of 209 patients were enrolled for the SONIC trial and allocated randomly in a double-blinded manner to one of 3 groups for the intravenous infusions of test drugs as follows: (Group A) placebo [0.9% normal saline], (Group B) 2,750 mg nelonemdazK for 5 days [500 mg for 1st infusion followed by 2nd-10th infusions approximately at 12 h intervals (250 mg for each infusion)], and (Group C) 5,250 mg nelonemdazK for 5 days [750 mg for 1st infusion followed by 2nd-10th infusions approximately at 12 h intervals (500 mg for each)].
# Acute ischemic stroke patients due to occlusion in carotid internal carotid artery system within 8 hours of onset were enrolled. Enrolled patients presented the National Institutes of Health Stroke Scale (NIHSS: range 0-42, with higher scores indicating greater stroke severity) scores and Alberta stroke program early CT score (ASPECTS: a 10-point quantitative topographic CT scan score used in patients with middle cerebral artery (MCA) stroke, with lower scores indicating larger cerebral infarction)≥6.
# For statistical analysis, Cochran-Mantel-Haenszel (CMH) chi-square test was conducted to compare distribution and ratio of mRS scores for each group at 1, 4, and 12 weeks after drug treatment. Ordinal logistic regression was applied with multivariate analysis controlling confounding variables that may cause difference between the groups in participating institutions and baseline scores. In addition, generalized estimating equation (GEE) analysis was conducted to compare the changes between groups in mRS scores measured at 1, 4, and 12 weeks after drug treatment. For the analysis of the Barthel Index score and adverse events, chi-square test or Fisher exact test was conducted to compare difference between groups at 1, 4, and 12 weeks after drug treatment.
# Acute ischemic stroke patients who presented the baseline NIHSS score≥8 and the mRS distribution of 2-5 were enrolled for the SONIC trial. Out of a total of 209 patients, 152 patients successfully completed procedures including drug treatment for 5 days and scheduled analysis over 12 weeks after drug treatment according to the clinical protocol approved by Korea Ministry of Food and Drug Safety. […] The shift analysis implies that administration of nelonemdazK reduces disability in acute stroke patients treated with endovascular thrombectomy.
# adult rats = conditions: rat, in vivo, iv, 200 mg/kg
smiles,measurement,setting,value
"O=C([O-])c1cc(NCc2c(F)c(F)c(C(F)(F)F)c(F)c2F)ccc1O.[K+] [nelonemdazK, 2-Hydroxy-5-(2,3,5,6-tetrafluoro-4-trifluoromethylbenzylamino)benzoic acid potassium salt]",hemorrhagic transformation evident by extravasation of Evans blue,"normal adult rats; 30 mg/kg IV 5 min later, 6 h after rt-PA",prevented
same,brain lesion (cresyl violet),"normal adult rats; 30 mg/kg IV, 6 h",prevented
same,volume of Evans blue extravasation,"normal adult rats; 30 mg/kg IV, 6 h, vs vehicle, p<0.05",significantly reduced
same,infarct volume,"normal adult rats; 30 mg/kg IV, 6 h after rt-PA, vs vehicle",significantly reduced
same,ratio of mRS 0,"[1]; 1 week, high dose (5,250 mg) (placebo 2.04%, p=0.01)",16.67%
same,ratio of mRS 0,"[1]; 1 week, low dose (2,750 mg) (placebo 2.04%, p=0.04)",12.96%
same,ratio of mRS 0,"[1]; 4 weeks, high dose (5,250 mg) (placebo 6.12%, p=0.007)",26.67%
same,ratio of mRS 0,"[1]; 4 weeks, low dose (2,750 mg) (placebo 6.12%, p=0.04)",20%
same,ratio of mRS 0,"[1]; 12 weeks, high dose (5,250 mg) (placebo 8.16%, p=0.004)",31.25%
same,ratio of patients with Barthel Index score higher than 90,"[1]; 12 weeks, high dose (placebo 41.86%, p<0.05)",64.44%
same,ratio of mRS 0,"[1]; 12 weeks, low dose (2,750 mg) (placebo 8.16%, p=0.03)",23.64%
same,ratio of patients with Barthel Index score higher than 90,"[1]; 12 weeks, low dose (placebo 41.86%)",54.72%
same,drug-related adverse events,"[1]; IV up to 5,250 mg for 5 days, 12 weeks follow-up",no drug-related adverse events
same,ratio of mRS 0-2 or 0,"[1]; high dose (5,250 mg, N=48), over 12 weeks",further increased; also recorded: increases
same,ratio of mRS 0-2 or 0,"[1]; low dose (2,750 mg, N=55), over 12 weeks",further increased; also recorded: increases
same,occurrence of adverse events and serious adverse events vs placebo,[1]; over 12 weeks,no difference
same,mortality rate,"[1]; over 12 weeks, high dose group (N=67) (placebo 8.57%)",4.48%
same,mortality rate,"[1]; over 12 weeks, low dose group (N=71) (placebo 8.57%)",4.23%
same,neuronal injury,adult rats,not observed

# Reference: patent US12433861B2, “Compositions and methods for treating reperfusion injury or hemorrhage after recanalization therapy” (GNT Pharma Co., Ltd., priority 2020, dated 2025)
